Earlier results in patent US20240368000A1, “CARBON REMOVAL FROM SEAWATER AND OTHER LIQUIDS USING PHOTOACTIVE COMPOUNDS” (University of Washington, priority 2021, published 2024).

Conditions: ground (dark) state of the photoacid; value from Wimberger et al., Chem. Commun. 2022, 58(37), 5610-5613

Question: With `COc1ccc2c(c1)C(C)(C)C(/C=C\c1ccccc1O)=[N+]2CCCC[S@SP3](=O)(=O)[O-]` [merocyanine photoacid] as the compound, how does the pKa-Dark read?
Answer: Its pKa-Dark is 7.33.
